The source of these data is article PMC10104807, “Modulation of tau tubulin kinases (TTBK1 and TTBK2) impacts ciliogenesis” (Scientific Reports, 2023).

What all share (test): DiscoverX scanMAX binding assay
The target of one experiment is T1, TAOK1 (Homo sapiens, UniProt Q7L7X3).
T1 construct: purchased Eurofins
T1 sequence (Q7L7X3 1-1001): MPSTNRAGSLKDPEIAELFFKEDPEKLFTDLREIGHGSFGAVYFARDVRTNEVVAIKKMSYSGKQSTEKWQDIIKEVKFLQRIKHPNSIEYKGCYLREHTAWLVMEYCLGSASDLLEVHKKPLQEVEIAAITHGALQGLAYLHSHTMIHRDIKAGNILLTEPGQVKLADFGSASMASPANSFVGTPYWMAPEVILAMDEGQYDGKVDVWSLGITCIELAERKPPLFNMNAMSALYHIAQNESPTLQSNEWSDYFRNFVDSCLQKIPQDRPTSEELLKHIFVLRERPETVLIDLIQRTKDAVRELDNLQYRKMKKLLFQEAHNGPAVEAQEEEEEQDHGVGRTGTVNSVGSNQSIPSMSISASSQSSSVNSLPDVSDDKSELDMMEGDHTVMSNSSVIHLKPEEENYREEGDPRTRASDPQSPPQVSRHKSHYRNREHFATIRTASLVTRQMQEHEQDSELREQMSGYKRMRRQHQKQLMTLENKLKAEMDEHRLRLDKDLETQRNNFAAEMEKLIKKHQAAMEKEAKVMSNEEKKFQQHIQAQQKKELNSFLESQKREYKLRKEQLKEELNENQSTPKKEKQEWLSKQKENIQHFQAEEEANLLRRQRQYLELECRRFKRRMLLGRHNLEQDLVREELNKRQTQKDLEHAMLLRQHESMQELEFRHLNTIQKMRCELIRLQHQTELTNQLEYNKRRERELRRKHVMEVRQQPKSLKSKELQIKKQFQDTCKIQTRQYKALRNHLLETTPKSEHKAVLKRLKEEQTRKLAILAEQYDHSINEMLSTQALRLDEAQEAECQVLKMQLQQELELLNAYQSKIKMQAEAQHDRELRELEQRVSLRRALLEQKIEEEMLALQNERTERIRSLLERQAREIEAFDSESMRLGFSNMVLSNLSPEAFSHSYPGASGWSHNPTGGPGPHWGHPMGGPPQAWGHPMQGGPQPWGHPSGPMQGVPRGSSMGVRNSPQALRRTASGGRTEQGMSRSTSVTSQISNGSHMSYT
The conditions noted are these: 1 μM. The text has this: (§1) This panel includes 403 wild-type (WT) human kinases but not TTBK1/2. […] Substantial overlap between the MRC and DiscoverX scanMAX kinase panels allows the comparison of results for the same kinases in two different assay formats (enzymatic versus binding, respectively) at the same concentration. Selectivity results are included in two columns within Table 1. […] The rightmost column converts this selectivity score into the number of kinases with a PoC < 10 in the scanMAX panel.
(§2) The Eurofins DiscoverX Corporation scanMAX assay platform was employed to assess the selectivity of specific analogs at a single concentration (1 µM). As described previously, this assay platform profiles a compound against 403 wild-type human kinases and delivers percent of control (PoC) values. These percent of control values are included in Table 1 and corresponding kinome tree diagrams as well as tables for each analog included in Fig. S1.

The target of the next experiment is T2, TAOK3 (Homo sapiens, UniProt Q9H2K8).
T2 construct: purchased Eurofins (radiometric) / Eurofins DiscoverX scanMAX / Reaction Biology / SignalChem
T2 sequence (Q9H2K8 1-898): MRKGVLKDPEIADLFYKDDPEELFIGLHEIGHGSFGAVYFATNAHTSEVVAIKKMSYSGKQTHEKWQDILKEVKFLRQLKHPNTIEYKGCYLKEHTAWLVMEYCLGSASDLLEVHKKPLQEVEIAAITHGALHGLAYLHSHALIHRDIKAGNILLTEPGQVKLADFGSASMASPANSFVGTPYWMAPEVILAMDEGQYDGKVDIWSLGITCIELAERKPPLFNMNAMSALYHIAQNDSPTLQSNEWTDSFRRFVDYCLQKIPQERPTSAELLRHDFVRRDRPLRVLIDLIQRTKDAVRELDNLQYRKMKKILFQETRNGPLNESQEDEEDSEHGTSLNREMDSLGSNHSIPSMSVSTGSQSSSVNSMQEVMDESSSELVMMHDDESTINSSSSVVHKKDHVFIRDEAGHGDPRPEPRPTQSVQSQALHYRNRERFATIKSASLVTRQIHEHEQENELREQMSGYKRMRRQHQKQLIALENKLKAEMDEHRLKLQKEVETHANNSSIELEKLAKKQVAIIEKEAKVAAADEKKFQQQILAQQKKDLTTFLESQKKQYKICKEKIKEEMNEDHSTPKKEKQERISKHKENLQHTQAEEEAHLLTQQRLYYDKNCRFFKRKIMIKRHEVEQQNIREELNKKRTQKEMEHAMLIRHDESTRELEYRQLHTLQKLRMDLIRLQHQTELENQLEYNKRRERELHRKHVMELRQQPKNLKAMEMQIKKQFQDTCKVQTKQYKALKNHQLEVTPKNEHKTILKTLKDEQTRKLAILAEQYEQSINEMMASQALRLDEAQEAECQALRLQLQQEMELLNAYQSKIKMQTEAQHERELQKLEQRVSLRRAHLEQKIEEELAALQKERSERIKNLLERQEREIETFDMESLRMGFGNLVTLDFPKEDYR
The note with it: for TAOK3 % control at 1000nM: 1 μM.
Text: as §1, §2

The target in another experiment is T3, PIP5K2C (Homo sapiens, UniProt Q8TBX8).
T3 construct: purchased Eurofins (radiometric) / Eurofins DiscoverX scanMAX / Reaction Biology / SignalChem
T3 sequence (Q8TBX8 1-421): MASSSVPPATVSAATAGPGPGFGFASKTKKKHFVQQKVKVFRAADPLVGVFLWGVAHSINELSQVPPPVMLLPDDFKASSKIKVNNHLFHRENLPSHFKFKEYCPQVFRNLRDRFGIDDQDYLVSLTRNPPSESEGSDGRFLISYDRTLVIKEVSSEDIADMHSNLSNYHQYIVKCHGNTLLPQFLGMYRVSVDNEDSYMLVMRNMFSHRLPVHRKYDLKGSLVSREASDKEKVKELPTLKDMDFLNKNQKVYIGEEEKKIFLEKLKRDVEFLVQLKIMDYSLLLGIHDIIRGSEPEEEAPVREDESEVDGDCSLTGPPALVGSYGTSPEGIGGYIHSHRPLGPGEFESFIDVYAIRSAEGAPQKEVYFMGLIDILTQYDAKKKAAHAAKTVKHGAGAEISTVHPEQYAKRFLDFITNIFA
The note with it: 1 μM.
Text: as §1, §2

For `CC(C)(O)C#Cc1ccc2[nH]c3c(c2c1)-c1nc(N)ncc1CCC3` [AMG28, reference compound], the “TAOK1 % control at 1000nM / DiscoverX PoC value” at TAOK1 is 3.2 % control. In addition, the kinase binding, percent of control at 1 µM at TAOK3 (read-out: TAOK3 % control at 1000nM) came to 1.8%. Besides, the “PIP5K2C (PI5P4Kγ) % control at 1000nM / DiscoverX PoC value” on PIP5K2C worked out at 3.1 % control.

For the molecule `CC(C)(O)C#Cc1ccc2[nH]c3c(c2c1)-c1nc(N)ncc1CC3` [Compound 1], on TAOK1, the “TAOK1 % control at 1000nM / DiscoverX PoC value” is 1.2 % control. Further, at TAOK3, the “TAOK3 % control at 1000nM” value stood at 1.5 % control. For the same molecule, at PIP5K2C, the “PIP5K2C (PI5P4Kγ) % control at 1000nM / DiscoverX PoC value” was determined as 0 % control.

On to `CC(C)(O)C#Cc1ccc2[nH]cc(-c3ccnc(N)n3)c2c1` [Compound 3], for which the “TAOK1 % control at 1000nM / DiscoverX PoC value” on TAOK1 turned out to be 2.1 % control. In addition, at TAOK3, the “TAOK3 % control at 1000nM” value is on record as 0.4 % control. On PIP5K2C, the “PIP5K2C (PI5P4Kγ) % control at 1000nM / DiscoverX PoC value” was determined as 0.2 % control.
